Assay results reported in patent US11746113B2, “Labelled cannabinergic ligands and related analogs” (priority 2020, dated 2023).

Tests used:
CB1/CB2 receptors = assay: Tight/irreversible binding: reduction of [3H]CP-55,940 Bmax after ligand pretreatment; details: receptors preincubated with ligand at 10-fold its Ki; saturation binding with [3H]CP-55,940; FIG. 8C
Experimental: Some disclosed compounds were tested for CB1 and CB2 receptor binding affinity (Tables 1, 2 and 3). As used herein “binding affinity” is represented by the Ki value. The Ki value is the affinity constant and describes the affinity of the compound for the receptor. The lower the Ki value, the higher the affinity of the compound for the receptor. A detailed description of the methods used to test “binding affinity” of compounds is given in Makriyannis, et al., US 2007, 0135388 and in Papahatjis, et al. J. Med. Chem. (2007) 4048, the content of each of which is hereby incorporated by reference. Functional characterization of some of the disclosed compounds was performed by using the cyclic adenosine monophosphate (cAMP) assay. The functional potency of the compound is represented by the EC50 value. The lower the EC50 value, the higher the functional potency. A detailed description of the cyclic adenosine monophosphate (cAMP) assay is given in Nikas et al. J. Med. Chem. (2010) 6996. The ability of some of the ligands to bind to the CB1/CB2 receptors with a tight/irreversible binding mode was determined by measuring reductions in the binding for the radioligand [3H]CP-55,940 when the receptor preparation was pretreated with the tight/irreversible ligand, and comparing it to the untreated sample as disclosed in Ogava et al. J. Med. Chem. (2015) 58, 3104. Reductions in the specific binding (Bmax) of [^3H]CP-55,940 after ligand pretreatment indicate ability of the ligand to tight/irreversibly bind to the receptor. As detailed in Ogava et al. J Med. Chem. (2015) 58, 3104, the experiment was conducted by pretreating the sample with a concentration equal to 10-fold the compound's Ki value for the receptor in question and subsequently measuring the decrease of Bmax obtained from a saturation curve using [3H]CP-55,940.

[1] = Fluorescence properties (excitation/emission maxima); type: physicochemical

Q: Which melting point does the source give for `CCCCCCC(C)(C)c1cc(OC(=O)C(C)(C)CCCNC(=O)c2cc3cc4c5c(c3oc2=O)CCCN5CCC4)c2c(c1)OC(C)(C)C1CCC(=O)C[C@@H]21` (stereo in doubt) [Compound 9.11, (6aS,10aR)-6,6-Dimethyl-3-(2-methyloctan-2-yl)-9-oxo-6a,7,8,9,10,10a-hexahydro-6H-benzo[c]chromen-1-yl 2,2-dimethyl-5-(11-oxo-2,3,6,7-tetrahydro-1H, 5H, 11H-pyrano[2,3-f]pyrido[3,2,1-ij]quinoline-10-carboxamido)pentanoate] here?
A: The melting point was 130 to 131 °C.

Q: For `CCCCCCC(C)(C)c1cc(OC(=O)C(C)(C)CCCCNC(=O)c2cc3cc4c5c(c3oc2=O)CCCN5CCC4)c2c(c1)OC(C)(C)C1CCC(=O)C[C@@H]21` (stereo in doubt) [Compound 9.12, (6aS,10aR)-6,6-Dimethyl-3-(2-methyloctan-2-yl)-9-oxo-6a,7,8,9,10,10a-hexahydro-6H-benzo[c]chromen-1-yl 2,2-dimethyl-6-(11-oxo-2,3,6,7-tetrahydro-1H, 5H, 11H-pyrano[2,3-f]pyrido[3,2,1-ij]quinoline-10-carboxamido)hexanoate], which melting point is on record?
A: The melting point was 133 to 134 °C.

Q: Which tight/irreversible binding mode (CB1/CB2 receptors) does the source give for `CC(C)(CCCCCCCl)c1cc(O)c2c(c1)OC(C)(C)[C@@H]1CC[C@@H](Cn3cc(COC(=O)CCCC[C@@H]4SC[C@@H]5NC(=O)N[C@@H]54)nn3)C[C@@H]21` [Compound 3.1, (1-{[(6aR,9R,10aR)-3-(8-Chloro-2-methyloctan-2-yl)-1-hydroxy-6,6-dimethyl-6a,7,8,9,10,10a-hexahydro-6H-benzo [c]chromen-9-yl]methyl}-1H-1,2,3-triazol-4-yl)methyl 5-[(3aS,4S,6aR)-2-oxohexahydro-1H-thieno[3,4-d]imidazol-4-yl]pentanoate] here?
A: Its tight/irreversible binding mode is “tight/irreversible”.

Q: Which tight/irreversible binding mode (CB1/CB2 receptors) does the source give for `CC(C)(CCCCCCCl)c1cc(O)c2c(c1)OC(C)(C)[C@@H]1CC[C@@H](Cn3cc(COC(=O)CCCCCNC(=O)CCCC[C@@H]4SC[C@@H]5NC(=O)N[C@@H]54)nn3)C[C@@H]21` [Compound 3.2, (1-{[(6aR,9R,10aR)-3-(8-Chloro-2-methyloctan-2-yl)-1-hydroxy-6,6-dimethyl-6a,7,8,9,10,10a-hexahydro-6H-benzo [c]chromen-9-yl]methyl}-1H-1,2,3-triazol-4-yl)methyl 6-{5-[(3aS,4S,6aR)-2-oxohexahydro-1H-thieno[3,4-d]imidazol-4-yl]pentanamido}hexanoate] here?
A: Its tight/irreversible binding mode is “tight/irreversible”.

Q: Which “Em λmax” value ([1]; Acetonitrile) does the source give for `CN(C)S(=O)(=O)c1ccc(NCc2cn(C[C@@H]3CC[C@@H]4[C@@H](C3)c3c(O)cc(C(C)(C)CCCCCCCl)cc3OC4(C)C)nn2)c2nonc12` [Compound 3.3, 7-(((1-(((6aR,9R,10aR)-3-(8-Chloro-2-methyloctan-2-yl)-1-hydroxy-6,6-dimethyl-6a,7,8,9,10,10a-hexahydro-6H-benzo [c]chromen-9-yl)methyl)-1H-1,2,3-triazol-4-yl)methyl)amino)-N,N-dimethylbenzo[c][1,2,5]oxadiazole-4-sulfonamide] here?
A: Its value is 583.

Q: And the “Ex λmax” value ([1]; Acetonitrile)?
A: Its value is 416.

Q: What about the “Em λmax” value ([1]; Ethanol) of the same compound?
A: Its value is 581.

Q: What about the “Ex λmax” value ([1]; Ethanol) of the same compound?
A: The value was 415.

Q: Which “Em λmax” value ([1]; Acetonitrile) does the source give for `CC(C)(CCCCCCCl)c1cc(O)c2c(c1)OC(C)(C)[C@@H]1CC[C@@H](Cn3cc(COCCCCNC(=O)c4cc5cc6c7c(c5oc4=O)CCCN7CCC6)nn3)C[C@@H]21` [Compound 3.4, N-{4-[(1-{[(6aR,9R,10aR)-3-(8-Chloro-2-methyloctan-2-yl)-1-hydroxy-6,6-dimethyl-6a,7,8,9,10,10a-hexahydro-6H-benzo[c]chromen-9-yl]methyl}-1H-1,2,3-triazol-4-yl)methoxy]butyl}-11-oxo-2,3,6,7-tetrahydro-1H, 5H, 11H-pyrano[2,3-f]pyrido[3,2,1-ij]quinoline-10-carboxamide] here?
A: Its value is 488.

Q: And the “Ex λmax” value ([1]; Acetonitrile)?
A: The value was 437.

Q: What about the “Em λmax” value ([1]; Ethanol) of the same compound?
A: The value was 477.

Q: And the “Ex λmax” value ([1]; Ethanol)?
A: The value was 436.

Q: With `CC(C)(CCCCCCCl)c1cc(O)c2c(c1)OC(C)(C)[C@@H]1CC[C@@H](Cn3cc(CNC(=O)c4cc5cc6c7c(c5oc4=O)CCCN7CCC6)nn3)C[C@@H]21` [Compound 3.13] as the compound, how does the “Em λmax” value ([1]; Acetonitrile) read?
A: Its value is 488.

Q: What about the “Ex λmax” value ([1]; Acetonitrile) of the same compound?
A: Its value is 435.

Q: What about the “Em λmax” value ([1]; Ethanol) of the same compound?
A: The value was 478.

Q: What about the “Ex λmax” value ([1]; Ethanol) of the same compound?
A: Its value is 436.

Q: With `CC(C)(CCCCCCCl)c1cc(O)c2c(c1)OC(C)(C)[C@@H]1CC[C@@H](COC(=O)CCCC[C@@H]3SC[C@@H]4NC(=O)N[C@@H]43)C[C@@H]21` [Compound 4.2, [(6aR,9R,10aR)-3-(8-Chloro-2-methyloctan-2-yl)-1-hydroxy-6,6-dimethyl-6a,7,8,9,10,10a-hexahydro-6H-benzo[c]chromen-9-yl]methyl 5-[(3a,4S,6aR)-2-oxohexahydro-1H-thieno[3,4-d]imidazol-4-yl]pentanoate] as the compound, how does the tight/irreversible binding mode (CB1/CB2 receptors) read?
A: Its tight/irreversible binding mode is “tight/irreversible”.

Q: Which tight/irreversible binding mode (CB1/CB2 receptors) does the source give for `CC(C)(CCCCCCCl)c1cc(O)c2c(c1)OC(C)(C)[C@@H]1CC[C@@H](COC(=O)CCCCCNC(=O)CCCC[C@@H]3SC[C@@H]4NC(=O)N[C@@H]43)C[C@@H]21` [Compound 4.4, [(6aR,9R,10aR)-3-(8-Chloro-2-methyloctan-2-yl)-1-hydroxy-6,6-dimethyl-6a,7,8,9,10,10a-hexahydro-6H-benzo[c]chromen-9-yl]methyl 6-{5-[(3aS,4S,6aR)-2-oxohexahydro-1H-thieno[3,4-d]imidazol-4-yl]pentanamido}hexanoate] here?
A: The tight/irreversible binding mode was “tight/irreversible”.

Q: Which tight/irreversible binding mode (CB1/CB2 receptors) does the source give for `CC(C)(CCCCCCO[N+](=O)[O-])c1cc(O)c2c(c1)OC(C)(C)[C@@H]1CC[C@@H](COC(=O)CCCC[C@@H]3SC[C@@H]4NC(=O)N[C@@H]43)C[C@@H]21` [Compound 4.7, {(6aR,9R,10aR)-1-Hydroxy-6,6-dimethyl-3-[2-methyl-8-(nitrooxy)octan-2-yl]-6a,7,8,9,10,10a-hexahydro-6H-benzo[c]chromen-9-yl}methyl 5-[(3aS,4S,6aR)-2-oxohexahydro-1H-thieno[3,4-d]imidazol-4-yl]pentanoate] here?
A: The tight/irreversible binding mode was “tight/irreversible”.

Q: For `CCCCCCC(C)(C)c1cc(OC(=O)c2cc3cc4c5c(c3oc2=O)CCCN5CCC4)c2c(c1)OC(C)(C)[C@@H]1CCC(=O)C[C@@H]21` [Compound 7.1, (6aR,10aR)-6,6-Dimethyl-3-(2-methyloctan-2-yl)-9-oxo-6a,7,8,9,10,10a-hexahydro-6H-benzo[c]chromen-1-yl 11-oxo-2,3,6,7-tetrahydro-1H, 5H, 11H-pyrano[2,3-f]pyrido[3,2,1-ij]quinoline-10-carboxylate], which melting point is on record?
A: Its melting point is 132 to 133 °C.

Q: For `CCCCCCC(C)(C)c1cc(OC(=O)c2cc3ccc(OC)cc3oc2=O)c2c(c1)OC(C)(C)[C@@H]1CCC(=O)C[C@@H]21` [Compound 7.2, (6aR,10aR)-6,6-Dimethyl-3-(2-methyloctan-2-yl)-9-oxo-6a,7,8,9,10,10a-hexahydro-6H-benzo[c]chromen-1-yl 7-methoxy-2-oxo-2H-chromene-3-carboxylate], which melting point is on record?
A: Its melting point is 122 to 123 °C.

Q: Which melting point does the source give for `CCCCCCC(C)(C)c1cc(OC(=O)C(C)(C)CNC(=O)c2cc3cc4c5c(c3oc2=O)CCCN5CCC4)c2c(c1)OC(C)(C)[C@@H]1CCC(=O)C[C@@H]21` [Compound 9.9, (6aR,10aR)-6,6-Dimethyl-3-(2-methyloctan-2-yl)-9-oxo-6a,7,8,9,10,10a-hexahydro-6H-benzo[c]chromen-1-yl 2,2-dimethyl-3-(11-oxo-2,3,6,7-tetrahydro-1H, 5H, 11H-pyrano[2,3-f]pyrido[3,2,1-ij]quinoline-10-carboxamido)propanoate] here?
A: Its melting point is 131 to 132 °C.

Q: For `CCCCCCC(C)(C)c1cc(OC(=O)C(C)(C)CCNC(=O)c2cc3cc4c5c(c3oc2=O)CCCN5CCC4)c2c(c1)OC(C)(C)[C@@H]1CCC(=O)C[C@@H]21` [Compound 9.10, (6aR,10aR)-6,6-Dimethyl-3-(2-methyloctan-2-yl)-9-oxo-6a,7,8,9,10,10a-hexahydro-6H-benzo[c]chromen-1-yl 2,2-dimethyl-4-(11-oxo-2,3,6,7-tetrahydro-1H, 5H, 11H-pyrano[2,3-f]pyrido[3,2,1-ij]quinoline-10-carboxamido)butanoate], which melting point is on record?
A: Its melting point is 132 to 133 °C.
